Earlier results as cited in patent US7485658B2, “N-substituted pyrazolyl-amidyl-benzimidazolyl c-Kit inhibitors” (OSI Pharmaceuticals, Inc., priority 2003, dated 2009).
Counter-ions that a name gives are not always drawn.

Experiments:
[1] = test system: MO7e human leukemia cells
[2] = test system: MO7e human leukemia cells; remark: listed apart in the source

## Cc1ccc(NC(=O)c2ccc(CN3CCN(C)CC3)cc2)cc1Nc1nccc(-c2cccnc2)n1 [Gleevec, imatinib mesylate]
[1]; Kit ligand stimulated
  Kit ligand-stimulated growth of MO7e cells: inhibited
[1]; Kit ligand stimulated conditions
  apoptosis in MO7e cells: induces apoptosis
[2]
  GM-CSF stimulated growth of MO7e cells: not affected
